Values quoted from earlier work as cited in US20240148688A1, “METHODS FOR TREATING AND AMELIORATING CANCER” (The Regents of the University of California, priority 2021, published 2024).

How the values were obtained:
[1] = cited from earlier work
[2] = patients with MDS, AML and CMML; cited from earlier work

| Molecule | reversible optic neuritis ([1]; patients with solid tumors) | efficacy in clinical trial ([1]; patients) | CR or PR (clinical response) [2] |
| --- | --- | --- | --- |
| CC[C@H](O)[C@@H](C)[C@H]1O[C@@H]1C[C@@](C)(O)/C=C/C=C(\C)[C@H]1OC(=O)C[C@H](O)CC[C@@](C)(O)[C@@H](OC(=O)N2CCN(C3CCCCCC3)CC2)/C=C/[C@@H]1C [E7107] | two of 26 patients | limited efficacy | – |
| H3B-8800 | – | – | no CR or PR |
